Reference: paper PMC11078746 (Nature, 2024)
Where “and” joins values, the source holds several entries; their conditions need not be identical. Equal entries are not always repeated.

Key:
SNUC2A = assay: CFA 10-14 day clonogenic assay; assay type: cell-based; conditions: Homo sapiens
SW48 xenografts = assay: SW48 cell-derived xenograft efficacy, HRO761 orally once daily; assay type: in vivo, mouse
Method: All animal studies were conducted in accordance with ethics and procedures covered by permit BS-2275 and BS-1975 issued by the Kantonales Veterinäramt Basel-Stadt and in strict adherence to guidelines of the Eidgenössisches Tierschutzgesetz and the Eidgenössische Tierschutzverordnung, Switzerland. All animal studies were approved by the internal ethics committee. All animals had access to food and water ad libitum and were identified with transponders. They were housed in a specific-pathogen-free facility in IVC racks under a 12 h–12 h light–dark cycle. To establish cell-line-derived xenograft models, 6–7-week-old female athymic nude (Crl:NU(NCr)-Foxn1^nu) or SCID-BEIGE (CB17.Cg-PrkdcscidLystbg-J/Crl) mice from Charles River were engrafted subcutaneously with 5 million tumour cells in HBSS (H6648, Sigma-Aldrich). For SNU-407, Lovo, IM95, RL95.2, Ishikawa and IGROV-1, the cells were concentrated in 50% Matrigel (354234, Corning). Patient-derived xenografts were induced and expanded by transplantation as previously described. […] For the efficacy experiment, mice were randomized into groups (n = 5–6) for a mean tumour size of 100–150 mm^3. […] Blood samples were collected on day 7 and 91. […] Tumour responses are reported with the measures of tumour volumes from the treatment start. […] Animals were randomized (n = 3) and tumour samples were collected at 0, 1, 4, 8 and 24 h on the first day and then collected 4 h after the last treatment on day 3, 8, 10, 14 (including a 24 h timepoint), 17 and 21. Tumours were excised, weighed, either frozen in liquid nitrogen and cryogenic dry pulverized with the CryoPrep system (model CP-02, Covaris) or processed to FFPE after fixation. […] On day 12, blood samples were collected for PK analysis. On the last day (3 h after the last treatment), tumours were excised, weighed, frozen in liquid nitrogen and cryogenic dry pulverized for PD analysis.

Structure (SMILES): CCc1c(N2CCN(C(=O)c3ncnc(C)c3O)CC2)c(=O)n2nc(C3=CCOCC3)nc2n1CC(=O)Nc1ccc(C(F)(F)F)cc1Cl [HRO761]
- GI50 (SNUC2A): 25 nM
- max Reg (%) or max T/C (%) (SW48 xenografts; 10 mg/kg): 94.00%
- tumour response (SW48 xenografts; 20 mg per kg, once daily oral): tumour stasis
- max Reg (%) or max T/C (%) (SW48 xenografts; 20 mg/kg): 6.00%
- max Reg (%) or max T/C (%) (SW48 xenografts; 30 mg/kg): -69.00%
- max Reg (%) or max T/C (%) (SW48 xenografts; 40 mg/kg): -75.00%
- max Reg (%) or max T/C (%) (SW48 xenografts; 60 mg/kg): -85.00%
- max Reg (%) or max T/C (%) (SW48 xenografts; 120 mg/kg): -89.00%
- Mean TVol (SW48 xenografts; HRO761 20mg/kg, day 0 post 1st dose): 148.57 mm3
- Mean TVol (SW48 xenografts; HRO761 20mg/kg, day 3 post 1st dose): 172.19 mm3
- Mean TVol (SW48 xenografts; HRO761 20mg/kg, day 7 post 1st dose): 214.06 mm3
- Mean TVol (SW48 xenografts; HRO761 20mg/kg, day 10 post 1st dose): 199.01 mm3
- Mean TVol (SW48 xenografts; HRO761 20mg/kg, day 14 post 1st dose): 193.54 mm3
- TVol, individual mouse (SW48 xenografts; HRO761 20mg/kg, day 14 post 1st dose, 20 mg/kg): 183.48 mm3 and 119.53 mm3 and 120.69 mm3 and 296.11 mm3 and 247.89 mm3
- Mean TVol (SW48 xenografts; HRO761 20mg/kg, day 17 post 1st dose): 171.07 mm3
- TVol, individual mouse (SW48 xenografts; HRO761 20mg/kg, day 17 post 1st dose, 20 mg/kg): 183.94 mm3 and 118.26 mm3 and 128.1 mm3 and 182.42 mm3 and 242.62 mm3
- Mean TVol (SW48 xenografts; HRO761 20mg/kg, day 21 post 1st dose): 210.51 mm3
- TVol, individual mouse (SW48 xenografts; HRO761 20mg/kg, day 21 post 1st dose, 20 mg/kg): 237.44 mm3 and 188.88 mm3 and 167.52 mm3 and 218.78 mm3 and 239.95 mm3
- Mean TVol (SW48 xenografts; HRO761 20mg/kg, day 24 post 1st dose): 217.13 mm3
- TVol, individual mouse (SW48 xenografts; HRO761 20mg/kg, day 24 post 1st dose, 20 mg/kg): 213.9 mm3 and 149.74 mm3 and 186.94 mm3 and 199.91 mm3 and 335.14 mm3
- Mean TVol (SW48 xenografts; HRO761 20mg/kg, day 28 post 1st dose): 270.81 mm3
- TVol, individual mouse (SW48 xenografts; HRO761 20mg/kg, day 28 post 1st dose, 20 mg/kg): 244.97 mm3 and 189.99 mm3 and 254.46 mm3 and 269.33 mm3 and 395.3 mm3
- Mean TVol (SW48 xenografts; HRO761 20mg/kg, day 31 post 1st dose): 317.23 mm3
- Mean TVol (SW48 xenografts; HRO761 20mg/kg, day 35 post 1st dose): 380.57 mm3
- Mean TVol (SW48 xenografts; HRO761 20mg/kg, day 38 post 1st dose): 438.75 mm3
- Mean TVol (SW48 xenografts; HRO761 20mg/kg, day 42 post 1st dose): 626.99 mm3
- Mean TVol (SW48 xenografts; HRO761 20mg/kg, day 45 post 1st dose): 658.99 mm3
- Mean TVol (SW48 xenografts; HRO761 40mg/kg, day 0 post 1st dose): 148.59 mm3
- Mean TVol (SW48 xenografts; HRO761 40mg/kg, day 3 post 1st dose): 162.25 mm3
- Mean TVol (SW48 xenografts; HRO761 40mg/kg, day 7 post 1st dose): 181.10 mm3
- Mean TVol (SW48 xenografts; HRO761 40mg/kg, day 10 post 1st dose): 146.66 mm3
- Mean TVol (SW48 xenografts; HRO761 40mg/kg, day 14 post 1st dose): 133.58 mm3
- TVol, individual mouse (SW48 xenografts; HRO761 40mg/kg, day 14 post 1st dose, 40 mg/kg): 137.47 mm3 and 92.79 mm3 and 146.32 mm3 and 135.46 mm3 and 155.86 mm3
- Mean TVol (SW48 xenografts; HRO761 40mg/kg, day 17 post 1st dose): 95.84 mm3
- TVol, individual mouse (SW48 xenografts; HRO761 40mg/kg, day 17 post 1st dose, 40 mg/kg): 84.05 mm3 and 68.24 mm3 and 117.68 mm3 and 91.67 mm3 and 117.57 mm3
- Mean TVol (SW48 xenografts; HRO761 40mg/kg, day 21 post 1st dose): 84.88 mm3
- TVol, individual mouse (SW48 xenografts; HRO761 40mg/kg, day 21 post 1st dose, 40 mg/kg): 65.27 mm3 and 62.26 mm3 and 114.98 mm3 and 87.79 mm3 and 94.1 mm3
- Mean TVol (SW48 xenografts; HRO761 40mg/kg, day 24 post 1st dose): 52.61 mm3
- TVol, individual mouse (SW48 xenografts; HRO761 40mg/kg, day 24 post 1st dose, 40 mg/kg): 40.05 mm3 and 34.46 mm3 and 63.81 mm3 and 55.22 mm3 and 69.51 mm3
- Mean TVol (SW48 xenografts; HRO761 40mg/kg, day 28 post 1st dose): 44.44 mm3
- TVol, individual mouse (SW48 xenografts; HRO761 40mg/kg, day 28 post 1st dose, 40 mg/kg): 41.72 mm3 and 27.23 mm3 and 46.41 mm3 and 45.86 mm3 and 60.97 mm3
- Mean TVol (SW48 xenografts; HRO761 40mg/kg, day 31 post 1st dose): 37.24 mm3
- Mean TVol (SW48 xenografts; HRO761 40mg/kg, day 35 post 1st dose): 32.88 mm3
- Mean TVol (SW48 xenografts; HRO761 40mg/kg, day 38 post 1st dose): 33.30 mm3
- Mean TVol (SW48 xenografts; HRO761 40mg/kg, day 42 post 1st dose): 36.90 mm3
- Mean TVol (SW48 xenografts; HRO761 40mg/kg, day 45 post 1st dose): 34.79 mm3
- Mean TVol (SW48 xenografts; HRO761 40mg/kg, day 49 post 1st dose): 37.27 mm3
- Mean TVol (SW48 xenografts; HRO761 40mg/kg, day 52 post 1st dose): 35.78 mm3
- Mean TVol (SW48 xenografts; HRO761 40mg/kg, day 56 post 1st dose): 46.42 mm3
- Mean TVol (SW48 xenografts; HRO761 40mg/kg, day 59 post 1st dose): 55.91 mm3
- Mean TVol (SW48 xenografts; HRO761 40mg/kg, day 63 post 1st dose): 77.49 mm3
- Mean TVol (SW48 xenografts; HRO761 40mg/kg, day 66 post 1st dose): 84.81 mm3
- Mean TVol (SW48 xenografts; HRO761 40mg/kg, day 70 post 1st dose): 105.06 mm3
- Mean TVol (SW48 xenografts; HRO761 40mg/kg, day 73 post 1st dose): 118.43 mm3
- Mean TVol (SW48 xenografts; HRO761 40mg/kg, day 76 post 1st dose): 139.13 mm3
- Mean TVol (SW48 xenografts; HRO761 40mg/kg, day 79 post 1st dose): 184.71 mm3
- Mean TVol (SW48 xenografts; HRO761 40mg/kg, day 83 post 1st dose): 215.37 mm3
- Mean TVol (SW48 xenografts; HRO761 40mg/kg, day 86 post 1st dose): 261.40 mm3
- Mean TVol (SW48 xenografts; HRO761 40mg/kg, day 90 post 1st dose): 329.03 mm3
- Mean TVol (SW48 xenografts; HRO761 40mg/kg, day 92 post 1st dose): 334.15 mm3
- Mean TVol (SW48 xenografts; HRO761 60mg/kg, day 0 post 1st dose): 148.59 mm3
- Mean TVol (SW48 xenografts; HRO761 60mg/kg, day 3 post 1st dose): 184.38 mm3
- Mean TVol (SW48 xenografts; HRO761 60mg/kg, day 7 post 1st dose): 168.35 mm3
- Mean TVol (SW48 xenografts; HRO761 60mg/kg, day 10 post 1st dose): 139.22 mm3
- Mean TVol (SW48 xenografts; HRO761 60mg/kg, day 14 post 1st dose): 143.74 mm3
